In ChEMBL document CHEMBL1208723, “Synthesis and activity of polyacetylene substituted 2-hydroxy acids, esters, and amides against microbes of clinical importance” (Bioorg Med Chem Lett, 2010):

system: Candida tropicalis; experiment: Antifungal activity against Candida tropicalis; type: functional, organism-based; details: not given

| Compound | IC50 |
| --- | --- |
| CCCCC#C/C=C\C#CCCCCCCC(O)C(=O)O (stereo not given) | Not Active |
| CCCCC#CC#C/C=C\CCCCCCC(O)C(=O)O (stereo not given) | Not Active |
| CCCCCC#CC#C/C=C/CCCCCC(O)C(=O)OC (stereo not given) | Not Active |
| CCCC/C=C\C#CC#CCCCCCC(O)C(=O)NCC(C)C (stereo not given) | Not Active |
| CCCC#C/C=C\C#CCCCCC[C@@H]1O[C@](C)(OC)[C@@](C)(OC)OC1=O | Not Active |
| CCCCC#CC#C/C=C/CCCCCCC(O)C(=O)OC(C)C (stereo not given) | Not Active |

same assay, conditions: Candida tropicalis; read-out: IC50

| Compound | IC50 [µM] |
| --- | --- |
| CCCCC/C=C\C#CC#CCCCCCC(O)C(=O)O (stereo not given) | 1000 |
| CCCC#CC#CC#CCCCCCC(O)C(=O)O (stereo not given) | 500 |
| CCCCCC#CC#C/C=C/CCCCCC(O)C(=O)O (stereo not given) | 500 |
| CCCCCC#CC#CC#CCCCCCC(O)C(=O)O (stereo not given) | 500 |
| CCCCC#CC#C/C=C/CCCCCCC(O)C(=O)O (stereo not given) | 500 |

system: Pseudomonas aeruginosa; experiment: Antibacterial activity against Pseudomonas aeruginosa ATCC 27853; type: functional; details: not given; further: test concentration or dose not given here

| Compound | inhibition (INH) [%] |
| --- | --- |
| CCCCC/C=C\C#CC#CCCCCCC(O)C(=O)O (stereo not given) | >75 |
| CCCC#CC#CC#CCCCCCC(O)C(=O)O (stereo not given) | >75 |
| CCCCC#C/C=C\C#CCCCCCCC(O)C(=O)O (stereo not given) | >75 |
| CCCCC#CC#C/C=C\CCCCCCC(O)C(=O)O (stereo not given) | >75 |
| CCCCCC#CC#C/C=C/CCCCCC(O)C(=O)O (stereo not given) | >75 |
| CCCCCC#CC#CC#CCCCCCC(O)C(=O)O (stereo not given) | >75 |
| CCCCCC#CC#C/C=C/CCCCCC(O)C(=O)OC (stereo not given) | >75 |
| CCCC/C=C\C#CC#CCCCCCC(O)C(=O)NCC(C)C (stereo not given) | >75 |
| CCCC#C/C=C\C#CCCCCC[C@@H]1O[C@](C)(OC)[C@@](C)(OC)OC1=O | >75 |
| CCCCC#CC#C/C=C/CCCCCCC(O)C(=O)O (stereo not given) | >75 |
| CCCCC#CC#C/C=C/CCCCCCC(O)C(=O)OC(C)C (stereo not given) | >75 |

system: Escherichia coli; experiment: Antibacterial activity against Escherichia coli ATCC 25922; type: functional; details: not given; further: test concentration or dose not given here

| Compound | inhibition (INH) [%] |
| --- | --- |
| CCCCC/C=C\C#CC#CCCCCCC(O)C(=O)O (stereo not given) | >75 |
| CCCC#CC#CC#CCCCCCC(O)C(=O)O (stereo not given) | >75 |
| CCCCC#C/C=C\C#CCCCCCCC(O)C(=O)O (stereo not given) | >75 |
| CCCCCC#CC#C/C=C/CCCCCC(O)C(=O)O (stereo not given) | 25 |
| CCCCCC#CC#CC#CCCCCCC(O)C(=O)O (stereo not given) | >75 |
| CCCCCC#CC#C/C=C/CCCCCC(O)C(=O)OC (stereo not given) | 50 |
| CCCC/C=C\C#CC#CCCCCCC(O)C(=O)NCC(C)C (stereo not given) | 50 |
| CCCC#C/C=C\C#CCCCCC[C@@H]1O[C@](C)(OC)[C@@](C)(OC)OC1=O | 50 |
| CCCCC#CC#C/C=C/CCCCCCC(O)C(=O)OC(C)C (stereo not given) | 50 |

system: Nakaseomyces glabratus; experiment: Antifungal activity against Candida glabrata; type: functional, organism-based; details: not given

| Compound | IC50 |
| --- | --- |
| CCCCC#C/C=C\C#CCCCCCCC(O)C(=O)O (stereo not given) | Not Active |
| CCCCC#CC#C/C=C\CCCCCCC(O)C(=O)O (stereo not given) | Not Active |
| CCCC/C=C\C#CC#CCCCCCC(O)C(=O)NCC(C)C (stereo not given) | Not Active |
| CCCC#C/C=C\C#CCCCCC[C@@H]1O[C@](C)(OC)[C@@](C)(OC)OC1=O | Not Active |
| CCCCC#CC#C/C=C/CCCCCCC(O)C(=O)OC(C)C (stereo not given) | Not Active |

same assay, conditions: Nakaseomyces glabratus; read-out: IC50

| Compound | IC50 [µM] |
| --- | --- |
| CCCCC/C=C\C#CC#CCCCCCC(O)C(=O)O (stereo not given) | 500 |
| CCCC#CC#CC#CCCCCCC(O)C(=O)O (stereo not given) | 500 |
| CCCCCC#CC#C/C=C/CCCCCC(O)C(=O)O (stereo not given) | 500 |
| CCCCCC#CC#CC#CCCCCCC(O)C(=O)O (stereo not given) | 500 |
| CCCCCC#CC#C/C=C/CCCCCC(O)C(=O)OC (stereo not given) | 500 |
| CCCCC#CC#C/C=C/CCCCCCC(O)C(=O)O (stereo not given) | 500 |

system: Candida albicans; experiment: Antifungal activity against Candida albicans; type: functional, organism-based; details: not given

| Compound | IC50 |
| --- | --- |
| CCCCC/C=C\C#CC#CCCCCCC(O)C(=O)O (stereo not given) | Not Active |
| CCCCC#C/C=C\C#CCCCCCCC(O)C(=O)O (stereo not given) | Not Active |
| CCCCC#CC#C/C=C\CCCCCCC(O)C(=O)O (stereo not given) | Not Active |
| CCCCCC#CC#CC#CCCCCCC(O)C(=O)O (stereo not given) | Not Active |
| CCCC/C=C\C#CC#CCCCCCC(O)C(=O)NCC(C)C (stereo not given) | Not Active |
| CCCC#C/C=C\C#CCCCCC[C@@H]1O[C@](C)(OC)[C@@](C)(OC)OC1=O | Not Active |
| CCCCC#CC#C/C=C/CCCCCCC(O)C(=O)OC(C)C (stereo not given) | Not Active |

same assay, conditions: Candida albicans; read-out: IC50

| Compound | IC50 [µM] |
| --- | --- |
| CCCC#CC#CC#CCCCCCC(O)C(=O)O (stereo not given) | 500 |
| CCCCCC#CC#C/C=C/CCCCCC(O)C(=O)O (stereo not given) | 500 |
| CCCCCC#CC#C/C=C/CCCCCC(O)C(=O)OC (stereo not given) | 1000 |
| CCCCC#CC#C/C=C/CCCCCCC(O)C(=O)O (stereo not given) | 500 |

system: Staphylococcus aureus; experiment: Antibacterial activity against Staphylococcus aureus ATCC 25923; type: functional; details: not given; further: test concentration or dose not given here

| Compound | inhibition (INH) [%] |
| --- | --- |
| CCCCC/C=C\C#CC#CCCCCCC(O)C(=O)O (stereo not given) | >75 |
| CCCC#CC#CC#CCCCCCC(O)C(=O)O (stereo not given) | >75 |
| CCCCC#C/C=C\C#CCCCCCCC(O)C(=O)O (stereo not given) | >75 |
| CCCCC#CC#C/C=C\CCCCCCC(O)C(=O)O (stereo not given) | 25 |
| CCCCCC#CC#CC#CCCCCCC(O)C(=O)O (stereo not given) | >75 |
| CCCCCC#CC#C/C=C/CCCCCC(O)C(=O)OC (stereo not given) | 25 |
| CCCC/C=C\C#CC#CCCCCCC(O)C(=O)NCC(C)C (stereo not given) | 50 |
| CCCC#C/C=C\C#CCCCCC[C@@H]1O[C@](C)(OC)[C@@](C)(OC)OC1=O | 25 |
| CCCCC#CC#C/C=C/CCCCCCC(O)C(=O)O (stereo not given) | 50 |
| CCCCC#CC#C/C=C/CCCCCCC(O)C(=O)OC(C)C (stereo not given) | 25 |

system: Staphylococcus aureus; experiment: Antibacterial activity against methicillin-resistant Staphylococcus aureus; type: functional; details: not given; further: test concentration or dose not given here

| Compound | inhibition (INH) [%] |
| --- | --- |
| CCCCCC#CC#C/C=C/CCCCCC(O)C(=O)O (stereo not given) | >75 |
| CCCCCC#CC#C/C=C/CCCCCC(O)C(=O)OC (stereo not given) | >75 |
| CCCC/C=C\C#CC#CCCCCCC(O)C(=O)NCC(C)C (stereo not given) | >75 |
| CCCC#C/C=C\C#CCCCCC[C@@H]1O[C@](C)(OC)[C@@](C)(OC)OC1=O | 25 |
| CCCCC#CC#C/C=C/CCCCCCC(O)C(=O)OC(C)C (stereo not given) | 50 |

system: Candida parapsilosis; experiment: Antifungal activity against Candida parapsilosis; type: functional, organism-based; details: not given

| Compound | IC50 |
| --- | --- |
| CCCCC#CC#C/C=C\CCCCCCC(O)C(=O)O (stereo not given) | Not Active |
| CCCCCC#CC#C/C=C/CCCCCC(O)C(=O)OC (stereo not given) | Not Active |
| CCCC/C=C\C#CC#CCCCCCC(O)C(=O)NCC(C)C (stereo not given) | Not Active |
| CCCC#C/C=C\C#CCCCCC[C@@H]1O[C@](C)(OC)[C@@](C)(OC)OC1=O | Not Active |
| CCCCC#CC#C/C=C/CCCCCCC(O)C(=O)OC(C)C (stereo not given) | Not Active |

same assay, conditions: Lodderomyces parapsilosis; read-out: IC50

| Compound | IC50 [µM] |
| --- | --- |
| CCCCC/C=C\C#CC#CCCCCCC(O)C(=O)O (stereo not given) | 2 |
| CCCC#CC#CC#CCCCCCC(O)C(=O)O (stereo not given) | 125 |
| CCCCC#C/C=C\C#CCCCCCCC(O)C(=O)O (stereo not given) | 500 |
| CCCCCC#CC#C/C=C/CCCCCC(O)C(=O)O (stereo not given) | 2 |
| CCCCCC#CC#CC#CCCCCCC(O)C(=O)O (stereo not given) | 2 |
| CCCCC#CC#C/C=C/CCCCCCC(O)C(=O)O (stereo not given) | 250 |

system: Pichia kudriavzevii; experiment: Antifungal activity against Candida krusei; type: functional, organism-based; details: not given

| Compound | IC50 |
| --- | --- |
| CCCCC#C/C=C\C#CCCCCCCC(O)C(=O)O (stereo not given) | Not Active |
| CCCCC#CC#C/C=C\CCCCCCC(O)C(=O)O (stereo not given) | Not Active |
| CCCCCC#CC#C/C=C/CCCCCC(O)C(=O)OC (stereo not given) | Not Active |
| CCCC/C=C\C#CC#CCCCCCC(O)C(=O)NCC(C)C (stereo not given) | Not Active |
| CCCC#C/C=C\C#CCCCCC[C@@H]1O[C@](C)(OC)[C@@](C)(OC)OC1=O | Not Active |
| CCCCC#CC#C/C=C/CCCCCCC(O)C(=O)OC(C)C (stereo not given) | Not Active |

same assay, conditions: Pichia kudriavzevii; read-out: IC50

| Compound | IC50 [µM] |
| --- | --- |
| CCCCC/C=C\C#CC#CCCCCCC(O)C(=O)O (stereo not given) | 1000 |
| CCCC#CC#CC#CCCCCCC(O)C(=O)O (stereo not given) | 500 |
| CCCCCC#CC#C/C=C/CCCCCC(O)C(=O)O (stereo not given) | 500 |
| CCCCCC#CC#CC#CCCCCCC(O)C(=O)O (stereo not given) | 500 |
| CCCCC#CC#C/C=C/CCCCCCC(O)C(=O)O (stereo not given) | 500 |

system: Streptococcus pyogenes; experiment: Antibacterial activity against Streptococcus pyogenes ATCC 19615; type: functional; details: not given; further: test concentration or dose not given here

| Compound | inhibition (INH) [%] |
| --- | --- |
| CCCCC/C=C\C#CC#CCCCCCC(O)C(=O)O (stereo not given) | >75 |
| CCCC#CC#CC#CCCCCCC(O)C(=O)O (stereo not given) | >75 |
| CCCCC#C/C=C\C#CCCCCCCC(O)C(=O)O (stereo not given) | >75 |
| CCCCCC#CC#C/C=C/CCCCCC(O)C(=O)O (stereo not given) | 50 |
| CCCCCC#CC#CC#CCCCCCC(O)C(=O)O (stereo not given) | 50 |
| CCCCCC#CC#C/C=C/CCCCCC(O)C(=O)OC (stereo not given) | >75 |
| CCCC/C=C\C#CC#CCCCCCC(O)C(=O)NCC(C)C (stereo not given) | >75 |
| CCCC#C/C=C\C#CCCCCC[C@@H]1O[C@](C)(OC)[C@@](C)(OC)OC1=O | >75 |
| CCCCC#CC#C/C=C/CCCCCCC(O)C(=O)O (stereo not given) | 25 |
| CCCCC#CC#C/C=C/CCCCCCC(O)C(=O)OC(C)C (stereo not given) | >75 |
